# Key:
# Experiment in all cases: Trypan blue staining apoptosis assay
# Format in all cases: cell-based
# [1] = test system: RKO human colon cancer cell line; details: RKO (p53 WT/LIG4 MT); 25 μM and 50 μM, 48 hours
# Description: (§1) In order to analyze the degree of apoptosis of Compound A, which is a novel PARP/Tankyrase simultaneous inhibitor according to a p53 genotype and LIG4 genotype, the present inventors treated a novel PARP/Tankyrase simultaneous inhibitor, Compound A, and a competitive drug PARP inhibitor, olaparib, in RKO, LoVo human colon cancer cell line in which the p53 gene is a normal type and the LIG4 gene is a mutant type and an SW620 human colon cancer cell line in which the p53 gene is a mutant type and the LIG4 gene is a normal type. The number of cells was measured by trypan blue staining assay to confirm the degree of apoptosis. The conditions and methods of the experiment were as follows: RKO, LoVo human colon cancer cell line in which the p53 gene is a normal type and the LIG4 gene is a mutant type and the SW620 human colon cancer cell line in which the p53 gene is a mutant type and the LIG4 gene is a normal type were cultured in RPMI1640 (10% FBS, 1% penicillin/streptomycin) and cultured in a 60 mm plate at 1×10^5 per well for 24 hours at 37° C. Compound A, which is a novel PARP/Tankyrase simultaneous inhibitor, and olaparib, which is a competitive drug PARP inhibitor, were treated with each of 25 μM and 50 μM and were cultured for 48 hours. The number of cells was measured by trypan blue staining assay to confirm the degree of apoptosis.
# In order to analyze the degree of apoptosis of Compound A, which is a novel PARP/Tankyrase simultaneous inhibitor, according to the p53 genotype and an LIG4 genotype, the present inventors treated Compounds A and B, which are novel PARP/Tankyrase simultaneous inhibitors, in the RKO and LoVo human colon cancer cell lines in which the p53 gene is a normal type and an LIG4 gene is a mutant type. Then, the number of cells was measured by trypan blue staining assay to confirm the degree of apoptosis. The RKO and LoVo human colon cancer cell lines were cultured under the same conditions as in Example 5. Compounds A and B, which are novel PARP/Tankyrase simultaneous inhibitors, were treated with 25 μM and 50 μM, respectively, for 48 hours. After 48 hours of culturing, the number of cells was measured by trypan blue staining assay to confirm the degree of apoptosis. […]
# [2] = test system: SW620 human colon cancer cell line; details: SW620 (p53 MT/LIG4 WT); 25 μM and 50 μM, 48 hours
# Description: as §1
# (§2) In order to analyze the degree of apoptosis of Compounds A and B, which are novel PARP/Tankyrase simultaneous inhibitors, in a cell line RKO in which the p53 genotype is a normal type and an LIG4 genotype is a mutant type, a cell line SW620 in which the p53 genotype is a mutant type and an LIG4 genotype is a normal type, a cell line HCT8 in which the p53 genotype and an LIG4 genotype are normal, and a cell line KM12C in which the p53 genotype and an LIG4 genotype are mutant, the human colon cancer cell lines of RKO, HCT, SW620 and KM12C with different p53 genotype and LIG4 genotype were cultured in RPMI1640 (10% FBS, 1% penicillin/streptomycin) and cultured in a 60 mm plate at 1×10^5 per well for 24 hours at 37° C. Compounds A and B, which are novel PARP/Tankyrase simultaneous inhibitors, and olaparib, which is a competitive drug PARP inhibitor, and NVP-TNKS656, which is a Tankyrase inhibitor, were treated with each of 25 μM and 50 μM. After 48 hours of culturing, the number of cells was measured by trypan blue staining assay to confirm the degree of apoptosis.
# [3] = test system: HCT8 human colon cancer cell line; details: HCT8 (p53 WT/LIG4 WT); 25 μM and 50 μM, 48 hours
# Description: as §2
# [4] = test system: KM12C human colon cancer cell line; details: KM12C (p53 MT/LIG4 MT); 25 μM and 50 μM, 48 hours
# Description: as §2
compound,measurement,setting,value
"COc1ccc(C(=O)C2CCN(CC(=O)N(Cc3nc4c(c(=O)[nH]3)COCC4)CC3CC3)CC2)cc1 [NVP-TNKS656, reference compound]",degree of apoptosis (trypan blue cell count),[1],no change in apoptosis
same,degree of apoptosis (trypan blue cell count),[2],No apoptosis occurred
same,degree of apoptosis (trypan blue cell count),[3],No apoptosis occurred
same,degree of apoptosis (trypan blue cell count),[4],No apoptosis occurred
